The target in test [1] is Bcl-2-like protein 1 (Homo sapiens, UniProt Q07817). In words: Displacement of Flu-Bid from human recombinant Bcl-xL receptor.
The target in test [2] is Apoptosis regulator Bcl-2 (Homo sapiens, UniProt P10415). Description: Displacement of Flu-Bid from human recombinant Bcl2 receptor.

The structures appear in SMILES notation. A value given as a limit tells only on which side of the number the result lay.

Apoptosis regulator Bcl-2, sequence (P10415 whole entry): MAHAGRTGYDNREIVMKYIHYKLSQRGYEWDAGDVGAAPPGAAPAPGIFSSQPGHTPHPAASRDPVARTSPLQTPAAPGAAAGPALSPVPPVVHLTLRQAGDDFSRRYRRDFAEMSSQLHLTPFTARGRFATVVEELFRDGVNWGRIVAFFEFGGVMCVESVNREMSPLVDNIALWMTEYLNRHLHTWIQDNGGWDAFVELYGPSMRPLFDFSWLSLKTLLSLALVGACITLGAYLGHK
Bcl-2-like protein 1, sequence (Q07817 whole entry): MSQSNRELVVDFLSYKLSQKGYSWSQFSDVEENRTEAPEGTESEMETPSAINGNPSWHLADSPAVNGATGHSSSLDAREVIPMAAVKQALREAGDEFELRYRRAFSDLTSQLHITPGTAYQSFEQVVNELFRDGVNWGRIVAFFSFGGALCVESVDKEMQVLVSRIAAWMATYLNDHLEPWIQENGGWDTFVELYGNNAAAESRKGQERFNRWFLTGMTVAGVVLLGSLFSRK

As to `CC(C)(C)C[C@H]1N[C@@H](C(=O)NCCN2CCOCC2)[C@H](c2cccc(Cl)c2F)[C@@]12C(=O)Nc1cc(Cl)ccc12`, the IC50 in test [1] and in test [2] was over 50 µM each time.

The values are drawn from ChEMBL document CHEMBL1148527, “Structure-based design of spiro-oxindoles as potent, specific small-molecule inhibitors of the MDM2-p53 interaction” (J Med Chem, 2006).
